≈ marks a conversion by molar mass, not a printed value. Where “and” joins values, the source holds several entries; their conditions need not be identical. Equal values may be shown once. Positions of bridges follow the written chain, without caps; N, C: chain ends. Non-standard residues stand in square brackets, D forms with d. Residues, ends and D or L forms follow the SMILES beside them. Triazole bridges read from a SMILES are 1,4-linked. Lys(N3) = [N-]=[N+]=NCCCC[C@H](N)C(=O)O; Pra = C#CC[C@H](N)C(=O)O
Assays:
C. parapsilosis DSM 5784 = assay type: cell-based; details: DSM 5784, 24 h
[1] = test system: S. typhimurium strain TA100; assay type: cell-based; details: 12.5 µM, TA100 without S9, 37 °C, 5 days, duplicate; MR ≥2 = mutagenic
Method: The fluctuation Ames test was performed according to the manufacturer’s protocol provided for the Muta-ChromoPlate Bacterial Strain Kit (EBPI, Canada) and according to OECD Guideline 471 (OECD Guidelines for the Testing of Chemicals, Section 4, Test No. 471: Bacterial Reverse Mutation Test). S. typhimurium strain TA100 was used to assess the bacterial reverse mutation from amino acid (histidine) auxotrophy to prototrophy after exposure to mutagens. The overnight TA100 cultures were exposed to each peptide at a 12.5-µM concentration in the presence of bromocresol purple and then dispensed into 96-well microtiter plates. The plates were incubated at 37 °C for 5 days. After this period, the number of positive colonies was counted and statistically compared with the number of positive colonies in the blank wells to identify the spontaneous mutation rate. The negative control was distilled water, while the positive control was sodium azide for TA100 without S9. All experiments were conducted in duplicate. The results were expressed as the mutagenicity ratio (MR) and were obtained by dividing the number of reverse mutation colonies by the spontaneous mutation rate. When the MR was ≥2, the sample was judged to be mutagenic.

[2] = ANTS/DPX leakage, eukaryotic membrane-like LUVs; details: peptide 50 μM, Chol/DOPC LUVs 0.1 mM lipid, PBS pH 7.2, 10 min, fluorescence 385/512 nm
Method: (§1) ANTS/DPX-entrapped large unilamellar vesicles (LUVs) composed of PE/PC/PI/Ergosterol (5:4:1:2, w/w/w/w) and Chol/DOPC (70:30, ratio in moles) were prepared by the extrusion method as previously described in [28]. First, the lipid films were prepared by dissolving lipids in the proper ratio in chloroform to have a final concentration of 0.1 mM and then dried under a nitrogen gas stream. The probes of ANTS (12.5 mM) and DPX (45 mM) dissolved in water were added to the lipid films, and the mixture was freeze-dried overnight. The lipid films with encapsulated ANTS and DPX were hydrated with a PBS 1× buffer (pH = 7.2), vortexed for 1 h, freeze-thawed 6 times and extruded 10 times through 0.1-μm pore size polycarbonate filters to obtain the LUVs. The LUVs with entrapped ANTS and DPX were separated from the free ANTS and DPX by gel filtration chromatography on a Sephadex G-50 column (1.5 × 10 cm). The assay was based on the measurement of dequenching of ANTS by DPX when the LUVs were incubated with peptide concentrations of 5, 10, 15, 20, 30 and 50 μM. The increase in ANT fluorescence was recorded at an excitation fluorescence at 385 nm (slit width: 5 nm) and a fluorescence emission at 512 nm (slit width: 5 nm) for 10 min after the addition of the peptide. The destruction of all LUVs and the complete release of ANTs were obtained after treatment with 10% Triton-X. The percentage of liposome leakage was calculated as %leakage = (Fi − F0)/(Ft − F0), where F0 represents the fluorescence of the intact LUVs before the addition of the peptide and Fi and Ft are the intensities of the fluorescence achieved after peptide and Triton-X treatment, respectively.

[3] = ANTS/DPX leakage, fungal membrane-like LUVs; details: for liposome leakage (ANTS release), fungal membrane-like LUVs: peptide 20 μM, PE/PC/PI/ergosterol LUVs 0.1 mM lipid, PBS pH 7.2, 10 min, fluorescence 385/512 nm; for leakage activity against liposomes mimicking the fungal membrane: PE/PC/PI/ergosterol LUVs, concentration not given
Method: as §1

C. albicans cells = experiment: Zeta potential of fungal cells by dynamic light scattering; assay type: cell-based; design: Calculated Zeta Potential: unit not given here; details: for Experimental Zeta Potential (ς): C. albicans cells after peptide 25 μM, PBS 0.001×, electrophoretic light scattering; for Calculated Zeta Potential: theoretical: charge of the peptide added to the zeta potential of the C. albicans cells
Method: The zeta potential of the fungal cells was recorded in a suspension (0.5 × 10^6 cells/mL) using the electrophoretic light scattering technique on a Zetasizer Nano ZS analyzer. Before the peptide treatment, the cells were suspended using a 0.05% trypsin solution in 0.53 mM EDTA. The concentration of the suspended cells in a buffered phosphate saline (PBS, 1.7 mM KH2PO4, 5.2 mM Na2HPO4 and 150 mM NaCl) was determined on a hemocytometer. The measurements were performed by diluting the cells with PBS 0.001× and treating them with the peptide at a concentration of 25 μM.

[4] = Critical aggregation concentration with Nile red; assay type: physicochemical; details: aqueous solution, Nile red 500 nM, 1 h, peptide 1-200 μM, emission maximum fitted with Boltzmann sigmoid, triplicate
Method: The peptide aggregation in the aqueous solution was monitored using Nile red as a dye probe. Nile red has poor solubility in water, and it has a large tendency to move in a hydrophobic environment as aggregates, showing a blue shift. First, the stock solutions of the peptides were prepared by dissolving them in ethanol, and then different aliquots were taken to prepare the peptide solutions at different concentrations (1, 5, 10, 15, 20, 30, 50, 100 and 200 μM). The ethanol was evaporated under a nitrogen gas stream and then dissolved with sterile water (1.5 mL), sonicated for 15 min and freeze-dried. Then, each peptide solution was hydrated with Nile red solution (C = 500 nM) in the dark place for 1 h before measurement. The emission spectra of Nile red were measured between 570 and 700 nm at a slit width of 5 nm using an excitation wavelength of 550 nm and a 10-nm slit width. The data were repeated in triplicate and analyzed by plotting the maximum emission fluorescence corresponding wavelength (y) as a function of the peptide concentration (x) and fitting with the sigmoidal Boltzmann equation: y=A1−A2/1+e^(x−x0/Δx)+A2
In the equation, A1 and A2 indicate the upper and lower limits of the sigmoid, respectively, x0 is the inflection point of the sigmoid and Δx is the parameter which represents the steepness of the function. The sigmoidal plot allows for calculating the CAC value at x0.

Structure (SMILES)	MFC, C. parapsilosis DSM 5784 (C. parapsilosis DSM 5784) [µM]	mutagenicity ratio (MR) [1]	liposome leakage (ANTS release), eukaryotic membrane-like LUVs [2]	liposome leakage (ANTS release), fungal membrane-like LUVs [3]	Experimental Zeta Potential (ς) (C. albicans cells) [mV]	Calculated Zeta Potential (C. albicans cells)	critical aggregation concentration (CAC) [4]	leakage activity against liposomes mimicking the fungal membrane [3]
CC(C)C[C@H](NC(=O)[C@@H]1CCCCn2cc(nn2)C[C@H](NC(=O)[C@H](CCCCN)NC(=O)[C@H](CO)NC(=O)[C@H](Cc2ccccc2)NC(=O)[C@H](Cc2c[nH]c3ccccc23)NC(=O)[C@@H]2CCCN2C(=O)[C@@H](NC(=O)[C@@H](N)Cc2ccccc2)C(C)C)C(=O)N[C@H](CC(C)C)C(=O)NCC(=O)N[C@@H](CCCNC(=N)N)C(=O)N1)C(N)=O [compound 7] (H-FVPWFSK[Pra][dL]GR[Lys(N3)]L-NH2; triazole 8-12; N-terminus assumed)	50 (≈ 79.9 µg/mL)	< 2	~ 28%	lower ANTS release	−4.5 ± 1.6	−3.2 ± 0.5	45.4 ± 0.8 µM	–
CC[C@H](C)[C@H](NC(=O)[C@H](CCCNC(=N)N)NC(=O)[C@@H]1CSSC[C@H](NC(=O)[C@H](Cc2ccccc2)NC(=O)[C@H](Cc2c[nH]c3ccccc23)NC(=O)[C@@H]2CCCN2C(=O)[C@@H](NC(=O)[C@@H](N)Cc2ccccc2)C(C)C)C(=O)N[C@@H](CCCCN)C(=O)N[C@@H](Cc2ccccc2)C(=O)N[C@H](CC(C)C)C(=O)N1)C(=O)N[C@@H](CC(C)C)C(N)=O [compound 16] (H-FVPWFCKF[dL]CRIL-NH2; disulfide 6-10; N-terminus assumed)	>50	< 2	~ 28%	lower ANTS release	−6.5 ± 0.2	−3.2 ± 0.5	42.9 ± 0.7 µM	–
CC[C@H](C)[C@H](NC(=O)[C@H](CCCNC(=N)N)NC(=O)[C@@H]1CCC(=O)NCCCC[C@H](NC(=O)[C@H](Cc2ccccc2)NC(=O)[C@H](Cc2c[nH]c3ccccc23)NC(=O)[C@@H]2CCCN2C(=O)[C@@H](NC(=O)[C@@H](N)Cc2ccccc2)C(C)C)C(=O)N[C@@H](CCCCN)C(=O)N[C@@H](Cc2ccccc2)C(=O)N[C@H](CC(C)C)C(=O)N1)C(=O)N[C@@H](CC(C)C)C(N)=O [compound 3] (H-FVPWFKKF[dL]ERIL-NH2; lactam 6-10; N-terminus assumed)	50 (≈ 85.2 µg/mL)	< 2	~ 28%	~ 30%	1.6 ± 0.3	−3.2 ± 0.5	17.3 ± 0.9 µM	~30%
CC[C@H](C)[C@H](NC(=O)[C@H](CCCNC(=N)N)NC(=O)[C@@H]1CCCCNC(=O)CC[C@H](NC(=O)[C@H](Cc2ccccc2)NC(=O)[C@H](Cc2c[nH]c3ccccc23)NC(=O)[C@@H]2CCCN2C(=O)[C@@H](NC(=O)[C@@H](N)Cc2ccccc2)C(C)C)C(=O)N[C@@H](CCCCN)C(=O)N[C@@H](Cc2ccccc2)C(=O)N[C@H](CC(C)C)C(=O)N1)C(=O)N[C@@H](CC(C)C)C(N)=O [compound 15] (H-FVPWFEKF[dL]KRIL-NH2; lactam 6-10; N-terminus assumed)	50 (≈ 85.2 µg/mL)	< 2	–	lower ANTS release	13.5 ± 3.4	−3.2 ± 0.5	17 µM and 17.8 ± 0.9 µM	less than 20%
